13 compounds from patent US20260274894A1, “CYCLIC POLYPEPTIDE COMPOUND AND USE THEREOF” (BIVISION PHARMACEUTICALS, INC., priority 2023, published 2026) can be followed below.

This assay deals with T1, FAP protein (Homo sapiens, UniProt Q12884).
T1 construct: purchased Sinobiological
T1 sequence (Q12884 1-760): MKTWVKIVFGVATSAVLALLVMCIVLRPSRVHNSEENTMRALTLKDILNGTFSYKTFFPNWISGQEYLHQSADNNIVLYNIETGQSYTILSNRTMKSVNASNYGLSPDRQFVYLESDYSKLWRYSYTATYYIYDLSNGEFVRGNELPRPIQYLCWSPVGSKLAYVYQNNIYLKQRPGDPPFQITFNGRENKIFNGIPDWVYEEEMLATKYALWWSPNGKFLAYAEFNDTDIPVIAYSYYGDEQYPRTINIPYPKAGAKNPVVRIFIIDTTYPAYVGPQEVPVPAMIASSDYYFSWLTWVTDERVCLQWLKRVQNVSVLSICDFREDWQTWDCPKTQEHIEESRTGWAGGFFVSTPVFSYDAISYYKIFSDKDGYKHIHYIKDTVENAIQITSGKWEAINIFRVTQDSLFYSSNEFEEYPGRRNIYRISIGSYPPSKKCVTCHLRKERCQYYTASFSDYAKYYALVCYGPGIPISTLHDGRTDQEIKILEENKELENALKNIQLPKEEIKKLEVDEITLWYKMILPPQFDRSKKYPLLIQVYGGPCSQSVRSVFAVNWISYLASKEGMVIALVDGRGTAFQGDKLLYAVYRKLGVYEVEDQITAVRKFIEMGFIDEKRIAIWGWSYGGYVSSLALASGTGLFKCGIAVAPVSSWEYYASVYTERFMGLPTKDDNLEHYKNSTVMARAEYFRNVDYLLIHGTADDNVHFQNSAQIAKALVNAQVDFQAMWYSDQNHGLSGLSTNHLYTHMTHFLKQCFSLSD
The assay can be described thus: Biacore test of compound affinity to FAP protein. The conditions noted are these: Biacore 8K, SA chip, 15° C., 1:1 binding model; for Kd: read-out: pKD (FAP) (converted). The procedure: The Biacore 8K (Cytiva) instrument was used to detect ligand binding of the FAP protein (Sinobiological). FAP protein was captured on the SA chip. […] The sensor surface was conditioned by injecting 1M NaCl three consecutive times in 50 mM NaOH. After each ligand injection, additional cleaning was performed using isopropanol in 1M NaCl and 50 mM NaOH (flow path 1 and 2, flow rate of 10 μL/min, injection time of 60 s). […] The analyte was run under the following conditions: analysis temperature of 15° C., analysis step=all set to LMW kinetics; cycle type=single cycle (contact time of 90 s, dissociation time of 1800 s, flow rate of 30 μL/min, flow channels 1 and 2); channel detection=2-1. Data was evaluated using the Biacore Insight Evaluation Software, and the data were fitted to a 1:1 binding model. The Biacore results are shown in Table 2 below: pKD=−Log KD, where KD is the binding affinity of the compound to the FAP protein as measured by Biacore.
(In general: In SPR one partner is held on a chip, and binding of the other changes the refractive index at the surface.)

SMILES strings stand for the structures. Numbered stars: 1 amine (or outer) side, 2 acyl side, 3 side chain; on linkers, the order of the positions; unused ones are H or OH. Bridge positions count the residues as written; N and C are the ends. Square brackets hold non-standard residues; d marks the D form. Side chains are listed from the residue outwards. Peptide text beside a SMILES is read from it. * marks the point of attachment. ξ: configuration not given here. TBMB(SCH2CH2NH-DOTA) = O=C(O)CN1CCN(CC(=O)O)CCN(CC(=O)NCCSCc2cc(C[*:1])cc(C[*:2])c2)CCN(CC(=O)O)CC1; NH(CH2)2O(CH2)2NHDOTA = O=C(O)CN1CCN(CC(=O)O)CCN(CC(=O)NCCOCCN*)CCN(CC(=O)O)CC1; X4 = O=C(O)CN1CCN(CC(=O)O)CCN(CC(=O)N2CCc3cc(C(=O)*)ccc3C2)CCN(CC(=O)O)CC1; X5 = CCCCCC(=O)N[C@@H](CSCc1cccc(C[*:2])c1)C(=O)N1CCC[C@@H](NC(=O)[*:1])C1; X3 = O=C(O)CN1CCN(CC(=O)O)CCN(CC(=O)NCCOCCOCCOCCN*)CCN(CC(=O)O)CC1; DOTA = O=C(O)CN1CCN(CC(=O)O)CCN(CC(=O)*)CCN(CC(=O)O)CC1; Azetidine3carboxylic = O=C(C1CN([*:1])C1)[*:2]; γGlu = O=C(O)[C@H](CCC(=O)[*:2])N[*:1]; βAsp = O=C(O)[C@H](CC(=O)[*:2])N[*:1]; mXylylene = c1cc(C[*:1])cc(C[*:2])c1; ξγGlu = O=C(O)C(CCC(=O)[*:2])N[*:1]; Ethylenediamine = C(CN[*:2])N[*:1]; Cha = N[C@@H](CC1CCCCC1)C(=O)O; Decanoyl = CCCCCCCCCC(=O)*; Octanoyl = CCCCCCCC(=O)*; Hexanoyl = CCCCCC(=O)*; ξP = O=C(O)C1CCCN1; ξC = NC(CS)C(=O)O

As to `CCCCCC(=O)N[C@H]1CSCc2cccc(c2)CSC[C@@H](C(=O)N[C@@H](CCC(=O)NCCNC(=O)CN2CCN(CC(=O)O)CCN(CC(=O)O)CCN(CC(=O)O)CC2)C(=O)O)NC(=O)[C@H](Cc2ccccc2)NC(=O)[C@H](CCC(N)=O)NC(=O)[C@H]([C@@H](C)O)NC(=O)[C@@H]2CCCN2C(=O)C2CN(C2)C1=O` (single isomer, unassigned) [^175Lu-JHDC23], the “pKD (FAP)” value is “B (B: 7<pKD<8)”.

Turning to `CCCCCC(=O)N[C@H]1CSCc2cccc(c2)CSCC(C(=O)N[C@@H](CCC(=O)NCCOCCNC(=O)CN2CCN(CC(=O)O)CCN(CC(=O)O)CCN(CC(=O)O)CC2)C(=O)O)NC(=O)[C@H](CC2CCCCC2)NC(=O)[C@H](CCC(N)=O)NC(=O)[C@H]([C@@H](C)O)NC(=O)C2CCCN2C(=O)C2CN(C2)C1=O` (stereo partly drawn) [JHDC05, Hex[Cys(3MeBn)-hhy39-Pro-Thr-Gln-hhy34-Cys]-Glu-(DAPEG2-DOTA)-OH] (Hexanoyl-C[Azetidine3carboxylic][ξP]TQ[Cha][ξC]E(NH(CH2)2O(CH2)2NHDOTA)-OH; linker 1-7 via mXylylene), the Kd was below 10 nM.

In the case of `CCCCCC(=O)N[C@H]1CSCc2cccc(c2)CSCC(C(=O)N[C@@H](CCC(=O)NCCOCCNC(=O)CN2CCN(CC(=O)O)CCN(CC(=O)O)CCN(CC(=O)O)CC2)C(=O)O)NC(=O)[C@H](Cc2ccccc2)NC(=O)[C@H](CCC(N)=O)NC(=O)[C@H]([C@@H](C)O)NC(=O)C2CCCN2C(=O)C2CN(C2)C1=O` (stereo partly drawn) [JHDC06, Hex[Cys(3MeBn)-hhy39-Pro-Thr-Gln-Phe-Cys]-Glu-(DAPEG2-DOTA)-OH] (Hexanoyl-C[Azetidine3carboxylic][ξP]TQF[ξC]E(NH(CH2)2O(CH2)2NHDOTA)-OH; linker 1-7 via mXylylene), the Kd was below 10 nM.

With `CCCCCC(=O)N[C@H]1CSCc2cccc(c2)CSCC(C(=O)N[C@@H](CCCCNC(=O)CN2CCN(CC(=O)O)CCN(CC(=O)O)CCN(CC(=O)O)CC2)C(=O)O)NC(=O)[C@H](Cc2ccccc2)NC(=O)[C@H](CCC(N)=O)NC(=O)[C@H]([C@@H](C)O)NC(=O)C2CCCN2C(=O)N[C@@H]2CCCN(C2)C1=O` (stereo partly drawn) [JHDC07, Hex[Cys(3MeBn)-hhy44(NH)—CO-Pro-Thr-Gln-Phe-Cys]-Lys-(DOTA)-OH] ([ξP]TQF[ξC]K(DOTA)-OH; linker N-5 via X5), the Kd is 10 to 100 nM.

For `CCCCCC(=O)N[C@H]1CSCc2cccc(c2)CSCC(C(=O)N[C@@H](CCC(=O)NCCOCCNC(=O)CN2CCN(CC(=O)O)CCN(CC(=O)O)CCN(CC(=O)O)CC2)C(=O)O)NC(=O)[C@H](CC2CCCCC2)NC(=O)CNC(=O)[C@H](CCC(N)=O)NC(=O)[C@H]([C@@H](C)O)NC(=O)C2CCCN2C(=O)C2CN(C2)C1=O` (stereo partly drawn) [JHDC09, Hex[Cys(3MeBn)-hhy39-Pro-Thr-Gln-Gly-hhy34-Cys]-Glu-(DAPEG2-DOTA)-OH] (Hexanoyl-C[Azetidine3carboxylic][ξP]TQG[Cha][ξC]E(NH(CH2)2O(CH2)2NHDOTA)-OH; linker 1-8 via mXylylene), the Kd is 10 to 100 nM.

Consider `CCCCCC(=O)N[C@H]1CSCc2cccc(c2)CSC[C@@H](C(=O)NCCOCCNC(=O)CN2CCN(CC(=O)O)CCN(CC(=O)O)CCN(CC(=O)O)CC2)NC(=O)[C@H](Cc2ccccc2)NC(=O)[C@H](CCC(N)=O)NC(=O)[C@H]([C@@H](C)O)NC(=O)[C@@H]2CCCN2C(=O)C2CN(C2)C1=O` [JHDC10, Hex[Cys(3MeBn)-hhy39-Pro-Thr-Gln-Phe-Cys]-DAPEG2-DOTA] (Hexanoyl-C[Azetidine3carboxylic]PTQFC-{NH(CH2)2O(CH2)2NHDOTA}; linker 1-7 via mXylylene), for which the Kd is 10 to 100 nM.

As for `CCCCCC(=O)N[C@H]1CCCCn2cc(nn2)CSC[C@@H](C(=O)N[C@@H](CCCCNC(=O)COCCNC(=O)CN2CCN(CC(=O)O)CCN(CC(=O)O)CCN(CC(=O)O)CC2)C(=O)O)NC(=O)[C@H](Cc2ccccc2)NC(=O)[C@H](CCC(N)=O)NC(=O)[C@H]([C@@H](C)O)NC(=O)[C@@H]2CCCN2C(=O)C2CN(C2)C1=O` [JHDC12, Hex[2AHA(Triazole)-hhy39-Pro-Thr-Gln-Phe-CSMC]-Lys-(AEAA-DOTA)-OH], the Kd was 10 to 100 nM.

With `CCCCCC(=O)N[C@H]1CSCc2cccc(c2)CSCC(C(=O)N[C@@H](CCC(=O)NCCOCCOCCOCCNC(=O)CN2CCN(CC(=O)O)CCN(CC(=O)O)CCN(CC(=O)O)CC2)C(=O)O)NC(=O)[C@H](CC2CCCCC2)NC(=O)[C@H](CCC(N)=O)NC(=O)[C@H]([C@@H](C)O)NC(=O)C2CCCN2C(=O)C2CN(C2)C1=O` (stereo partly drawn) [JHDC16, Hex[Cys(3MeBn)-hhy39-Pro-Thr-Gln-hhy34-Cys]-Glu-(DAPEG4-DOTA)-OH] (Hexanoyl-C[Azetidine3carboxylic][ξP]TQ[Cha][ξC]E(X3)-OH; linker 1-7 via mXylylene), the Kd is 10 to 100 nM.

Consider `CCCCCC(=O)N[C@H]1CSCc2cccc(c2)CSCC(C(=O)N[C@@H](CCC(=O)NCCOCCNC(=O)CN2CCN(CC(=O)O)CCN(CC(=O)O)CCN(CC(=O)O)CC2)C(=O)O)NC(=O)CNC(=O)[C@H](CC2CCCCC2)NC(=O)[C@H](CCC(N)=O)NC(=O)[C@H]([C@@H](C)O)NC(=O)C2CCCN2C(=O)C2CN(C2)C1=O` (stereo partly drawn) [JHDC17, Hex[Cys(3MeBn)-hhy39-Pro-Thr-Gln-hhy34-Gly-Cys]-Glu-(DAPEG2-DOTA)-OH] (Hexanoyl-C[Azetidine3carboxylic][ξP]TQ[Cha]G[ξC]E(NH(CH2)2O(CH2)2NHDOTA)-OH; linker 1-8 via mXylylene), for which the Kd was 10 to 100 nM.

As to `CCCCCCCCCC(=O)N[C@H]1CSCc2cccc(c2)CSC[C@@H](C(=O)N[C@@H](CCC(=O)N[C@@H](CCCNC(=N)N)C(=O)NCC(=O)N[C@@H](CC(=O)NCCNC(=O)CN2CCN(CC(=O)O)CCN(CC(=O)O)CCN(CC(=O)O)CC2)C(=O)O)C(=O)O)NC(=O)[C@H](Cc2ccccc2)NC(=O)[C@H](CCC(N)=O)NC(=O)[C@H]([C@@H](C)O)NC(=O)[C@@H]2CCCN2C(=O)C2CN(C2)C1=O` [JHDC18, Dec[Cys(3MeBn)-hhy39-Pro-Thr-Gln-Phe-Cys]-Glu-(Arg-Gly-Asp(EDA-DOTA))-OH] (Decanoyl-C[Azetidine3carboxylic]PTQFC[γGlu]RG[βAsp]-{Ethylenediamine-DOTA}; linker 1-7 via mXylylene), the Kd is 10 to 100 nM.

Take `CCCCCCCCCC(=O)N[C@H]1CSCc2cccc(c2)CSC[C@@H](C(=O)N[C@@H](CCC(=O)N[C@@H](CCCNC(=N)N)C(=O)NCC(=O)N[C@@H](CC(=O)NCCNC(=O)CN2CCN(CC(=O)O)CCN(CC(=O)O)CCN(CC(=O)O)CC2)C(=O)O)C(=O)O)NC(=O)[C@H](CC2CCCCC2)NC(=O)[C@H](CCC(N)=O)NC(=O)[C@H]([C@@H](C)O)NC(=O)[C@@H]2CCCN2C(=O)C2CN(C2)C1=O` [JHDC19, Dec[Cys(3MeBn)-hhy39-Pro-Thr-Gln-hhy34-Cys]-Glu-(Arg-Gly-Asp(EDA-DOTA))-OH] (Decanoyl-C[Azetidine3carboxylic]PTQ[Cha]C[γGlu]RG[βAsp]-{Ethylenediamine-DOTA}; linker 1-7 via mXylylene): the Kd was 10 to 100 nM.

`CCCCCCCC(=O)N[C@H]1CSCc2cc(CSCCNC(=O)CN3CCN(CC(=O)O)CCN(CC(=O)O)CCN(CC(=O)O)CC3)cc(c2)CSC[C@@H](C(=O)NC(CCC(=O)N[C@@H](CCCNC(=N)N)C(=O)NCC(=O)N[C@@H](CC(N)=O)C(=O)O)C(=O)O)NC(=O)[C@H](CC2CCCCC2)NC(=O)[C@H](CCC(N)=O)NC(=O)[C@H]([C@@H](C)O)NC(=O)C2CCCN2C(=O)C2CN(C2)C1=O` (stereo partly drawn) [JHDC21, Oct[Cys(tMeBn-DOTA-AET)-hhy39-Pro-Thr-Gln-hhy34-Cys]-Glu-(Arg-Gly-Asp(NH2))-OH] (Octanoyl-C[Azetidine3carboxylic][ξP]TQ[Cha]C[ξγGlu]RGN-OH; linker 1-7 via TBMB(SCH2CH2NH-DOTA)): the Kd was 10 to 100 nM.

As to `CCCCCC(=O)N[C@H]1CSCc2cccc(c2)CSCC(C(=O)N[C@@H](CCC(=O)NCCNC(=O)c2ccc3c(c2)CCN(C(=O)CN2CCN(CC(=O)O)CCN(CC(=O)O)CCN(CC(=O)O)CC2)C3)C(=O)O)NC(=O)[C@H](Cc2ccccc2)NC(=O)[C@H](CCC(N)=O)NC(=O)[C@H]([C@@H](C)O)NC(=O)C2CCCN2C(=O)C2CN(C2)C1=O` (stereo partly drawn) [JHDC25, Hex[Cys(3MeBn)-hhy39-Pro-Thr-Gln-Phe-Cys]-Glu-(EDA-hhy02-DOTA)-OH] (Hexanoyl-C[Azetidine3carboxylic][ξP]TQF[ξC]E([Ethylenediamine-X4])-OH; linker 1-7 via mXylylene), the Kd is 10 to 100 nM.
